Results from ChEMBL document CHEMBL4420078, “Sos1 inhibitors for cancer treatment” (2016).
One block for each compound: values may come before it. The source made the active and inactive calls. The calls are words filed in the database; no cut-off is given here.

Key:
[1] = target: T1, Son of sevenless homolog 1 (Mus musculus) (UniProt Q62245); test: Inhibition of SOS1 in overnight serum-starved mouse NIH/3T3 cells assessed as reduction in ERK1/2 phosphorylation at 20 to 40 uM pre-incubated for 16 hrs before EGF stimulation for 5 mins by Western blot analysis
T1 sequence (whole entry): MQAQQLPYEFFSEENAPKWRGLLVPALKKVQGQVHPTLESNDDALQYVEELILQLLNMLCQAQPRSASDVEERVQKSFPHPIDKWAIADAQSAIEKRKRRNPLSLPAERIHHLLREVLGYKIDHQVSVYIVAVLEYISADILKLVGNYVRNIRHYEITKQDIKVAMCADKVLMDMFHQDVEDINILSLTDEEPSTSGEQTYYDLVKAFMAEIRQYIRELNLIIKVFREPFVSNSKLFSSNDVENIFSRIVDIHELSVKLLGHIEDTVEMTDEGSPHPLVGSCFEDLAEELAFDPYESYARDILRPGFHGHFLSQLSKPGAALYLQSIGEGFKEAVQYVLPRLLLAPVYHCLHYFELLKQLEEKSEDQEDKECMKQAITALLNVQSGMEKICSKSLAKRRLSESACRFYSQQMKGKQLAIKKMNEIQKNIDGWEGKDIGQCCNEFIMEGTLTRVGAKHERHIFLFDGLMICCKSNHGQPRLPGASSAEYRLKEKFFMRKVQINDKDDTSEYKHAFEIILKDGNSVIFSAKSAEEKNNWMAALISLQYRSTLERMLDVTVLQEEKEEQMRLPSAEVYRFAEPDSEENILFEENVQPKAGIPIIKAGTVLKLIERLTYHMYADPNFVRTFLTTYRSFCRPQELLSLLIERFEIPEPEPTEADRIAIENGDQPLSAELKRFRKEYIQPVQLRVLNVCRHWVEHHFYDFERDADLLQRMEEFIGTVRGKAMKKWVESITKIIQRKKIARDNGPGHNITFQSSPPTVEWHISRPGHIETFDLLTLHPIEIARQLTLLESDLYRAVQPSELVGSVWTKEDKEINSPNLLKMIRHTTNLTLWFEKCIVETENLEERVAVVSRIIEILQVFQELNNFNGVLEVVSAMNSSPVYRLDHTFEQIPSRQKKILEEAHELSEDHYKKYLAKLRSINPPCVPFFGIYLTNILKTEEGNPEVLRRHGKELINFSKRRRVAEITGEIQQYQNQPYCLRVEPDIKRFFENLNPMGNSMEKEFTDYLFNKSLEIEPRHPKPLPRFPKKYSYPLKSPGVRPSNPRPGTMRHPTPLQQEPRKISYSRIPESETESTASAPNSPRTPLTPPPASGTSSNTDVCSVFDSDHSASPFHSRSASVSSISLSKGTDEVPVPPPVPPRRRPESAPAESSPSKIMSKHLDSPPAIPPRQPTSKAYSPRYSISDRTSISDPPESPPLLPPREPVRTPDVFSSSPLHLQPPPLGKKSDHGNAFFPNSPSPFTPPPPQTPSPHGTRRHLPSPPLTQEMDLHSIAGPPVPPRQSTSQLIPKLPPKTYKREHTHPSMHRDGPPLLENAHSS

[2] = target: T1, Son of sevenless homolog 1 (Mus musculus); test: Inhibition of SOS1 in overnight serum-starved mouse NIH/3T3 cells assessed as effect on Ras-GTP levels at 20 to 40 uM pre-incubated for 2 hrs before EGF stimulation for 5 mins by GST-Raf1 effector domain pulldown assay
MIA PaCa-2 = test: Effect on total ERK protein levels in overnight serum-starved human MIAPaCa2 cells at 20 to 60 uM incubated for 2 hrs by Western blotting analysis; format: ADME, cell-based; settings: mia paca-2, 2 h
[3] = target: T1, Son of sevenless homolog 1 (Mus musculus); test: Inhibition of SOS1 in overnight serum-starved mouse NIH/3T3 cells assessed as effect on Rac1-GTP levels at 20 to 50 uM pre-incubated for 2 hrs before EGF stimulation for 5 mins by GST-Raf1 effector domain pulldown assay
[4] = target: T1, Son of sevenless homolog 1 (Mus musculus); test: Inhibition of SOS1 in overnight serum-starved mouse MEF assessed as reduction in Akt phosphorylation at 10 to 40 uM pre-incubated for 2 hrs before EGF stimulation for 5 mins by Western blot analysis; format: cell-based
[5] = target: T1, Son of sevenless homolog 1 (Mus musculus); test: Inhibition of SOS1 in overnight serum-starved and H-RasG12V transduced mouse MEF assessed as reduction in ERK1/2 phosphorylation at 10 to 40 uM pre-incubated for 2 hrs before EGF stimulation for 5 mins by Western blot analysis; format: cell-based

inhibition [1]: Active
SMILES: O=C(O)c1ccccc1-c1c2ccc3cc(O)ccc3c2oc2c1ccc1cc(=O)ccc12

inhibition [2]: Active
SMILES: O=C(O)c1cc2c3c(c1)C1C=CCC1C(c1ccccc1Cl)N3CC1CC=CC21 (stereo unspecified)

inhibition [3]: inactive
inhibition [4]: Active
inhibition [5]: Active
SMILES: O=C1Oc2ccccc2C(=O)/C1=C/N1C(=O)/C(=C/c2ccc([N+](=O)[O-])cc2)SC1=S
Activity (MIA PaCa-2): Non-Toxic
